Assay results from patent US9670157B2, “Benzylamine derivatives” (KALVISTA PHARMACEUTICALS LIMITED, priority 2013, dated 2017).

Tests used:
[1] = biological target: Human plasma kallikrein (Homo sapiens (Human), UniProt P03952); test: Determination of the IC50 for Plasma Kallikrein; type: biochemical; settings: 37° C., fluorogenic substrate H-DPro-Phe-Arg-AFC; read-out: IC50 (human PKal)
Description: Human plasma kallikrein (Protogen) was incubated at 37° C. with the fluorogenic substrate H-DPro-Phe-Arg-AFC and various concentrations of the test compound. Residual enzyme activity (initial rate of reaction) was determined by measuring the change in optical absorbance at 410 nm and the IC50 value for the test compound was determined.

[2] = biological target: Human KLK1 (Homo sapiens (Human), UniProt P06870); test: Determination of the IC50 for KLK1; type: biochemical; settings: 37° C., fluorogenic substrate H-DVal-Leu-Arg-AFC
Sequence of Human KLK1 (P06870 25-262): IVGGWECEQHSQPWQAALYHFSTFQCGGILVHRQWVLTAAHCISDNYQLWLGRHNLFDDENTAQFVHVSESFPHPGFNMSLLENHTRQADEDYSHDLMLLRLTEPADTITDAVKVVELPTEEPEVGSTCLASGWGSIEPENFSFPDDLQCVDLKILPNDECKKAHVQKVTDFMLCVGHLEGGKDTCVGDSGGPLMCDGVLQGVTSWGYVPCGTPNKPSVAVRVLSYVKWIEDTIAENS
Description: KLK1 inhibitory activity in vitro was determined using standard published methods (see e.g. Johansen et al., Int. J. Tiss. Reac. 1986, 8, 185; Shori et al., Biochem. Pharmacol., 1992, 43, 1209; Stürzebecher et al., Biol. Chem. Hoppe-Seyler, 1992, 373, 1025). Human KLK1 (Callbiochem) was incubated at 37° C. with the fluorogenic substrate H-DVal-Leu-Arg-AFC and various concentrations of the test compound. Residual enzyme activity (initial rate of reaction) was determined by measuring the change in optical absorbance at 410 nm and the IC50 value for the test compound was determined.

Sequence of Human plasma kallikrein (P03952 391-638): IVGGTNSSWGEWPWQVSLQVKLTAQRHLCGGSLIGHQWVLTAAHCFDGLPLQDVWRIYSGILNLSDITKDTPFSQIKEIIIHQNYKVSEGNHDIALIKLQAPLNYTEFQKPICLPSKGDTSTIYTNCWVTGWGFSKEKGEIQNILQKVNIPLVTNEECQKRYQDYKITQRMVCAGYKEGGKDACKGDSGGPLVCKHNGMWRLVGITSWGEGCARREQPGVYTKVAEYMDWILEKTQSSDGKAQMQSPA
Sequence of Human plasma kallikrein (P03952 20-390 partner): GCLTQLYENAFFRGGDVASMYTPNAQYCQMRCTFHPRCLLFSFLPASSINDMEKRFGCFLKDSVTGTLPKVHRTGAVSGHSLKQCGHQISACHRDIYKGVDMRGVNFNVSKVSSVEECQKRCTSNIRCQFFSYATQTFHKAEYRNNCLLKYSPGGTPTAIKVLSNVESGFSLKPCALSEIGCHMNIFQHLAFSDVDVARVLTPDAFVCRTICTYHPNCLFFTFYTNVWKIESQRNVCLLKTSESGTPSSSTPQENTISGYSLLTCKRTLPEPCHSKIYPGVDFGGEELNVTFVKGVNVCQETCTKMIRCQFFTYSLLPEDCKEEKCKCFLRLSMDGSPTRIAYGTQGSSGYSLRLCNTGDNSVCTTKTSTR

Compound | IC50 [1] [nM] | IC50 [2] [nM]
Cc1cc(C(=O)NCc2ccc(CN)cc2)c(C)n1Cc1cc(-c2ccccc2)no1 [Example 11, 2,5-Dimethyl-1-(3-phenyl-isoxazol-5-ylmethyl)-1H-pyrrole-3-carboxylic acid 4-aminomethyl-benzylamide] | 2420 | > 10000
Cc1cc(C(=O)NCc2ccc(CN)cc2)c(C)n1Cc1nc2ccccc2s1 [Example 12, 1-Benzothiazol-2-ylmethyl-2,5-dimethyl-1H-pyrrole-3-carboxylic acid 4-aminomethyl-benzylamide] | 5120 | > 10000
Cc1cc(C(=O)NCc2ccc(CN)cc2)c(C)n1Cc1cc(-c2cccnc2)cs1 [Example 13, 2,5-Dimethyl-1-(4-pyridin-3-yl-thiophen-2-ylmethyl)-1H-pyrrole-3-carboxylic acid 4-aminomethyl-benzylamide] | 2380 | > 10000
Cc1cc(C(=O)NCc2ccc(CN)cc2)c(C)n1Cc1cc(-c2ccncc2)cs1 [Example 14, 2,5-Dimethyl-1-(4-pyridin-4-yl-thiophen-2-ylmethyl)-1H-pyrrole-3-carboxylic acid 4-aminomethyl-benzylamide] | 2300 | 6370
Cc1cc(C(=O)NCc2ccc(CN)cc2)c(C)n1Cc1cccc(N2CCOCC2)n1 [Example 15, 2,5-Dimethyl-1-(6-morpholin-4-yl-pyridin-2-ylmethyl)-1H-pyrrole-3-carboxylic acid 4-aminomethyl-benzylamide] | 5690 | > 10000
Cc1cc(C(=O)NCc2ccc(CN)cc2)c(C)n1Cc1cccc(-c2cccnc2)n1 [Example 17, 1-[2,3′]Bipyridinyl-6-ylmethyl-2,5-dimethyl-1H-pyrrole-3-carboxylic acid 4-aminomethyl-benzylamide] | 492 | > 10000
Cc1oc(-c2ccccc2)nc1Cn1c(C)cc(C(=O)NCc2ccc(CN)cc2)c1C [Example 19, 2,5-Dimethyl-1-(5-methyl-2-phenyl-oxazol-4-ylmethyl)-1H-pyrrole-3-carboxylic acid 4-aminomethyl-benzylamide] | 768 | > 10000
Cc1cc(C(=O)NCc2ccc(CN)cc2)c(C)n1Cc1cccs1 [Example 20, 2,5-Dimethyl-1-thiophen-2-ylmethyl-1H-pyrrole-3-carboxylic acid 4-amidomethyl-benzylamide] | 4950 | 2400
Cc1cc(C(=O)NCc2ccc(CN)cc2)c(C)n1Cc1ccc(-c2ccccc2)s1 [Example 22, 2,5-Dimethyl-1-(5-phenyl-thiophen-2-ylmethyl)-1H-pyrrole-3-carboxylic acid 4-aminomethyl-benzylamide] | 3270 | > 10000
Cc1nc(-c2ccc(Cn3c(C)cc(C(=O)NCc4ccc(CN)cc4)c3C)s2)cs1 [Example 23, 2,5-Dimethyl-1-[5-(2-methyl-thiazol-4-yl)-thiophen-2-ylmethyl]-1H-pyrrole-3-carboxylic acid 4-aminomethyl-benzylamide] | 1600 | > 10000
Cc1c(C(=O)NCc2ccc(CN)cc2)ccn1Cc1csc(-c2ccccc2)n1 [Example 25, 2-Methyl-1-(2-phenyl-thiazol-4-ylmethyl)-1H-pyrrole-3-carboxylic acid 4-aminomethyl-benzylamide] | 1330 | > 10000
Cc1cc(C(=O)NCc2ccc(CN)cc2)c(C)n1Cc1csc(-c2cccc(Cl)c2)n1 [Example 27, 2,5-Dimethyl-1-[2-(3-chlorophenyl)-thiazol-4-ylmethyl]-1H-pyrrole-3-carboxylic acid 4-aminomethyl-benzylamide] | 848 | > 10000
Cc1cc(C(=O)NCc2ccc(CN)cc2)c(C)n1Cc1csc(-c2ccc(Cl)cc2)n1 [Example 28, 2,5-Dimethyl-1-[2-(4-chlorophenyl)-thiazol-4-ylmethyl]-1H-pyrrole-3-carboxylic acid 4-aminomethyl-benzylamide] | 1330 | > 10000
Cc1cccc(-c2nc(Cn3c(C)cc(C(=O)NCc4ccc(CN)cc4)c3C)cs2)c1 [Example 30, 2,5-Dimethyl-1-(2-m-tolyl-thiazol-4-ylmethyl)-1H-pyrrole-3-carboxylic acid 4-aminomethyl-benzylamide] | 773 | > 10000
Cc1cc(C(=O)NCc2ccc(CN)cc2)c(C)n1Cc1csc(-c2cccnc2)n1 [Example 31, 2,5-Dimethyl-1-(2-pyridin-3-yl-thiazol-4-ylmethyl)-1H-pyrrole-3-carboxylic acid 4-aminomethyl-benzylamide] | 251 | 8080
Cc1cc(C(=O)NCc2ccc(CN)cc2)c(C)n1Cc1csc(-c2ccncc2)n1 [Example 32, 2,5-Dimethyl-1-(2-pyridin-4-yl-thiazol-4-ylmethyl)-1H-pyrrole-3-carboxylic acid 4-aminomethyl-benzylamide] | 732 | > 10000
Cc1ccc(-c2nc(Cn3c(C)cc(C(=O)NCc4ccc(CN)cc4)c3C)cs2)cc1 [Example 35, 2,5-Dimethyl-1-(2-p-tolyl-thiazol-4-ylmethyl)-1H-pyrrole-3-carboxylic acid 4-aminomethyl-benzylamide] | 2100 | > 10000
Cc1cc(C(=O)NCc2ccc(CN)cc2)c(C)n1Cc1csc(Cc2ccccc2)n1 [Example 38, 1-(2-Benzyl-thiazol-4-ylmethyl)-2,5-dimethyl-1H-pyrrole-3-carboxylic acid 4-aminomethyl-benzylamide] | 2310 | > 10000
Cc1cc(C(=O)NCc2ccc(CN)cc2)c(C)n1Cc1csc(-c2cnccn2)n1 [Example 40, 2,5-Dimethyl-1-(2-pyrazin-2-yl-thiazol-4-ylmethyl)-1H-pyrrole-3-carboxylic acid 4-aminomethyl-benzylamide] | 1660 | > 10000
CCOc1ccc(-c2nc(Cn3c(C)cc(C(=O)NCc4ccc(CN)cc4)c3C)cs2)cc1 [Example 41, 1-[2-(4-Ethoxy-phenyl)-thiazol-4-ylmethyl]-2,5-dimethyl-1H-pyrrole-3-carboxylic acid 4-aminomethyl-benzylamide] | 4700 | > 10000
Cc1cc(C(=O)NCc2ccc(CN)cc2)c(C)n1Cc1ccccc1 [Example 55, 1-Benzyl-2,5-dimethyl-1H-pyrrole-3-carboxylic acid 4-aminomethyl-benzylamide] | 3270 | –

Second part, the compound after the results:

IC50 [1] [nM] | IC50 [2] [nM] | Compound
6 | > 10000 | Cc1cc(CN)cc(C)c1CNC(=O)c1cc(C)n(Cc2csc(-c3ccccc3)n2)c1C [Example 3, 2,5-Dimethyl-1-(2-phenyl-thiazol-4-ylmethyl)-1H-pyrrole-3-carboxylic acid 4-aminomethyl-2,6-dimethyl-benzylamide]
121 | > 10000 | Cc1cc(C(=O)NCc2ccc(C3(N)CC3)cc2)c(C)n1Cc1csc(-c2ccccc2)n1 [Example 4, 2,5-Dimethyl-1-(2-phenyl-thiazol-4-ylmethyl)-1H-pyrrole-3-carboxylic acid 4-(1-amino-cyclopropyl)-benzylamide]
348 | 6360 | Cc1cc(C(=O)NCc2ccc(CN)cc2)c(C)n1Cc1csc(-c2cccnc2)c1 [Example 8, 2,5-Dimethyl-1-(5-pyridin-3-yl-thiophen-3-ylmethyl)-1H-pyrrole-3-carboxylic acid 4-aminomethyl-benzylamide]
571 | > 10000 | Cc1cc(C(=O)NCc2ccc(CN)cc2)c(C)n1Cc1csc(-c2ccccc2)c1 [Example 10, 2,5-Dimethyl-1-(5-phenyl-thiophen-3-ylmethyl)-1H-pyrrole-3-carboxylic acid 4-aminomethyl-benzylamide]
186 | > 10000 | Cc1cc(C(=O)NCc2ccc(CN)cc2)c(C)n1Cc1cccc(-c2ccccc2)n1 [Example 16, 2,5-Dimethyl-1-(6-phenyl-pyridin-2-ylmethyl)-1H-pyrrole-3-carboxylic acid 4-aminomethyl-benzylamide]
435 | > 10000 | Cc1cc(C(=O)NCc2ccc(CN)cc2)c(C)n1Cc1coc(-c2ccccc2)n1 [Example 18, 2,5-Methyl-1-(2-phenyl-oxazol-4-ylmethyl)-1H-pyrrole-3-carboxylic acid 4-aminomethyl-benzylamide]
431 | > 10000 | Cc1cc(C(=O)NCc2ccc(CN)cc2)c(-c2ccccc2)n1Cc1csc(-c2ccccc2)n1 [Example 24, 5-Methyl-2-phenyl-1-(2-phenyl-thiazol-4-ylmethyl)-1H-pyrrole-3-carboxylic acid 4-aminomethyl-benzylamide]
437 | > 10000 | Cc1cc(C(=O)NCc2ccc(CN)cc2)c(C)n1Cc1csc(-c2cccs2)n1 [Example 26, 2,5-Dimethyl-1-[2-(2-thienyl)-thiazol-4-ylmethyl]-1H-pyrrole-3-carboxylic acid 4-aminomethyl-benzylamide]
140 | > 10000 | Cc1cc(C(=O)NCc2ccc(CN)cc2)c(C)n1Cc1csc(-c2cccc(F)c2)n1 [Example 29, 1-[2-(3-Fluoro-phenyl)-thiazol-4-ylmethyl]-2,5-dimethyl-1H-pyrrole-3-carboxylic acid 4-aminomethyl-benzylamide]
203 | > 10000 | Cc1cc(C(=O)NCc2ccc(CN)cc2)c(C)n1Cc1csc(-c2ccccn2)n1 [Example 36, 2,5-Dimethyl-1-(2-pyridin-2-yl-thiazol-4-ylmethyl)-1H-pyrrole-3-carboxylic acid 4-aminomethyl-benzylamide]
